Measurements: patent publication US20260216255A1, “STRAIN OF COLLINSELLA, AND PHARMACEUTICAL COMPOSITION THEREOF” (MOON (GUANGZHOU) BIOTECH CO., LTD., priority 2022, published 2026)

Test system: strain MNH 18574
Assay: Antibiotic sensitivity test by disk diffusion method
Format: cell-based, Collinsella sp.
Conditions: for Diameter of inhibition zone: strain MNH 18574
Protocol: An antibiotic sensitivity test was carried out on the strain MNH 18574 by a disk diffusion method.

Compound	sensitivity or resistance of strain MNH 18574 to the antibiotic	Diameter of inhibition zone [mm]
CO/N=C(\C(=O)N[C@@H]1C(=O)N2C(C(=O)O)=C(CSc3nc(=O)c(=O)[nH]n3C)CS[C@H]12)c1csc(N)n1 [Ceftriaxone (CTR), Ceftriaxone]	resistant	0
CC[C@H]1OC(=O)[C@H](C)[C@@H](O[C@H]2C[C@@](C)(OC)[C@@H](O)[C@H](C)O2)[C@H](C)[C@@H](O[C@@H]2O[C@H](C)C[C@H](N(C)C)[C@H]2O)[C@](C)(O)C[C@@H](C)C(=O)[C@H](C)[C@@H](O)[C@]1(C)O [Erythromycin (ERM), Erythromycin]	resistant	0
Trimethoprim-sulfamethoxazole [Trimethoprim-sulfamethoxazole (T/S)]	resistant	0
O=C(O)c1cn(C2CC2)c2cc(N3CCNCC3)c(F)cc2c1=O [Ciprofloxacin (CFX), Ciprofloxacin]	resistant	0
Gentamicin [Gentamicin (GEN)]	resistant	0
CC1(C)S[C@@H]2[C@H](NC(=O)[C@H](N)c3ccccc3)C(=O)N2[C@H]1C(=O)O [Ampicillin (AMP), Ampicillin]	resistant	0
O=C(N[C@H](CO)[C@H](O)c1ccc([N+](=O)[O-])cc1)C(Cl)Cl [Chloramphenicol (CLM), Chloramphenicol]	sensitive	27.64
CCC[C@@H]1C[C@@H](C(=O)N[C@@H]([C@H]2O[C@H](SC)[C@H](O)[C@@H](O)[C@H]2O)[C@@H](C)O)N(C)C1 [Lincomycin (LIN), Lincomycin]	resistant	0
CN(C)[C@@H]1C(O)=C(C(N)=O)C(=O)[C@@]2(O)C(O)=C3C(=O)c4c(O)cccc4[C@@](C)(O)[C@H]3C[C@@H]12 [Tetracycline (TET), Tetracycline]	–	0
Penicillin [Penicillin (PEN)]	sensitive	24.51
